# Assay results: PubChem BioAssay AID330 (DTP/NCI, 2004)
# Where “and” joins values, the source holds several entries; their conditions need not be identical. Equal entries are not always repeated. Inconclusive results and toxic doses are left out.
# System: P388 leukemia ip, CD2F1 mice, survival T/C
# Experiment: NCI In Vivo Anticancer Drug Screen. Data for tumor model P388 Leukemia (intraperitoneal) in CD2F1 (CDF1) mice
# Conditions: endpoint: median survival time, higher = longer survival
# Method in brief: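 Mice carrying the transplanted tumor received test compound or vehicle. Survival was recorded in each group, and the value is the treated-group measurement divided by that of the vehicle-treated control group.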
# [1] = dose: 60.0 mg/kg/injection, schedule: Q01DX005 (ip), vehicle: saline with Tween-80
# [2] = dose: 120.0 mg/kg/injection, schedule: Q01DX005 (ip), vehicle: saline with Tween-80
# [3] = dose: 240.0 mg/kg/injection, schedule: Q01DX005 (ip), vehicle: saline with Tween-80
# [4] = dose: 25.0 mg/kg/injection, schedule: Q01DX005 (ip), vehicle: saline with Tween-80
# [5] = dose: 50.0 mg/kg/injection, schedule: Q01DX005 (ip), vehicle: saline with Tween-80
# [6] = dose: 100.0 mg/kg/injection, schedule: Q01DX005 (ip), vehicle: saline with Tween-80
# [7] = dose: 200.0 mg/kg/injection, schedule: Q01DX005 (ip), vehicle: saline with Tween-80
# [8] = dose: 12.5 mg/kg/injection, schedule: Q01DX009 (ip), vehicle: saline
# [9] = dose: 25.0 mg/kg/injection, schedule: Q01DX009 (ip), vehicle: saline
# [10] = dose: 12.5 mg/kg/injection, schedule: Q01DX009 (ip), vehicle: Klucel (hydroxypropylcellulose) (HPC)
# [11] = dose: 25.0 mg/kg/injection, schedule: Q01DX009 (ip), vehicle: Klucel (hydroxypropylcellulose) (HPC)
# [12] = dose: 50.0 mg/kg/injection, schedule: Q01DX009 (ip), vehicle: saline with Tween-80
# [13] = dose: 100.0 mg/kg/injection, schedule: Q01DX009 (ip), vehicle: saline with Tween-80
# [14] = dose: 200.0 mg/kg/injection, schedule: Q01DX009 (ip), vehicle: saline with Tween-80
# [15] = dose: 50.0 mg/kg/injection, schedule: Q01DX005 (ip), vehicle: Klucel (hydroxypropylcellulose) (HPC)
# [16] = dose: 100.0 mg/kg/injection, schedule: Q01DX005 (ip), vehicle: Klucel (hydroxypropylcellulose) (HPC)
smiles,measurement,setting,value
COc1ccc(NC(=O)CCCC(=O)CC(=O)c2ccc(Cl)cc2)c(OC)c1,T/C,[1],109 % of control
same,T/C,[2],103 % of control
same,T/C,[3],101 % of control
CCCCC[C@@H]1CC=C[C@@H](NC(=O)OCc2ccccc2)[C@H]1/C=C/C(=O)CCCCC1OCCO1,T/C,"dose: 60.0 mg/kg/injection, schedule: Q01DX005 (ip), vehicle: DMSO",101 % of control
same,T/C,"dose: 120.0 mg/kg/injection, schedule: Q01DX005 (ip), vehicle: DMSO",93 % of control
same,T/C,"dose: 240.0 mg/kg/injection, schedule: Q01DX005 (ip), vehicle: DMSO",98 % of control
CN(C)c1ccc(/C=C/C=C2C(=O)NC(=S)NC2=O)cc1,T/C,"dose: 100.0 mg/kg/injection, schedule: Q04DX002 (ip), vehicle: Klucel (hydroxypropylcellulose) (HPC)",89 % of control
same,T/C,"dose: 200.0 mg/kg/injection, schedule: Q04DX002 (ip), vehicle: Klucel (hydroxypropylcellulose) (HPC)",92 % of control
same,T/C,"dose: 400.0 mg/kg/injection, schedule: Q04DX002 (ip), vehicle: Klucel (hydroxypropylcellulose) (HPC)",87 % of control
C[Si](C)(CCCNCCN)O[Si](C)(C)CCCNCCN,T/C,"dose: 15.0 mg/kg/injection, schedule: Q01DX005 (ip), vehicle: saline with Tween-80",104 % of control
same,T/C,"dose: 30.0 mg/kg/injection, schedule: Q01DX005 (ip), vehicle: saline with Tween-80",118 % of control
same,T/C,[1],94 % of control and 96 % of control
CC(C)=CCC/C(C)=C/CSC#N,T/C,[4],102 % of control
same,T/C,[5],105 % of control
same,T/C,[6],111 % of control
same,T/C,[7],104 % of control
O=C1CS(=O)(=O)C(c2cccc(Cl)c2)N1N1C(=O)CS(=O)(=O)C1c1cccc(Cl)c1 (stereo not drawn),T/C,[5],92 % of control
same,T/C,[6],100 % of control
same,T/C,[7],92 % of control
CN(C)c1nc(N/N=C\C(O)C(O)C(O)C(O)CO)nc(N(C)C)n1 (stereo not drawn),T/C,"dose: 100.0 mg/kg/injection, schedule: Q04DX003 (ip), vehicle: saline with Tween-80",112 % of control
same,T/C,"dose: 200.0 mg/kg/injection, schedule: Q04DX003 (ip), vehicle: saline with Tween-80",103 % of control
same,T/C,"dose: 400.0 mg/kg/injection, schedule: Q04DX003 (ip), vehicle: saline with Tween-80",102 % of control
CC1CC(C)(O)CC(C(O)CC2CC(=O)NC(=O)C2)C1=O (stereo not drawn),T/C,"dose: 77.8 micrograms/kg/injection, schedule: Q01DX009 (ip), vehicle: saline",123 % of control
same,T/C,"dose: 216.0 micrograms/kg/injection, schedule: Q01DX009 (ip), vehicle: saline",152 % of control and 162 % of control
same,T/C,"dose: 360.0 micrograms/kg/injection, schedule: Q01DX009 (ip), vehicle: saline",165 % of control
same,T/C,"dose: 467.0 micrograms/kg/injection, schedule: Q04DX003 (ip), vehicle: saline",120 % of control
same,T/C,"dose: 778.0 micrograms/kg/injection, schedule: Q04DX003 (ip), vehicle: saline",120 % of control
same,T/C,"dose: 1300.0 micrograms/kg/injection, schedule: Q04DX003 (ip), vehicle: saline",120 % of control
same,T/C,"dose: 2160.0 micrograms/kg/injection, schedule: Q04DX003 (ip), vehicle: saline",124 % of control
same,T/C,"dose: 3600.0 micrograms/kg/injection, schedule: Q04DX003 (ip), vehicle: saline",118 % of control
O=N[O-].O=N[O-].O=[N+]([O-])O.[Co+3].[NH-]CC[NH-].[NH-]CC[NH-],T/C,[8],104 % of control
same,T/C,[9],98 % of control
same,T/C,"dose: 50.0 mg/kg/injection, schedule: Q01DX009 (ip), vehicle: saline",100 % of control and 98 % of control
same,T/C,"dose: 100.0 mg/kg/injection, schedule: Q01DX009 (ip), vehicle: saline",100 % of control
Nc1nc(N)nc(Cl)n1,T/C,[10],100 % of control and 91 % of control
same,T/C,[11],101 % of control and 104 % of control
same,T/C,"dose: 50.0 mg/kg/injection, schedule: Q01DX009 (ip), vehicle: Klucel (hydroxypropylcellulose) (HPC)",123 % of control and 91 % of control
same,T/C,"dose: 100.0 mg/kg/injection, schedule: Q01DX009 (ip), vehicle: Klucel (hydroxypropylcellulose) (HPC)",104 % of control and 96 % of control
c1ccc2c(Oc3c4ccccc4nc4ccccc34)c3ccccc3nc2c1,T/C,[5],95 % of control
same,T/C,[6],88 % of control
same,T/C,[7],90 % of control
Cc1ccc(S(=O)(=O)NNC(=O)CCn2[nH]c(=O)c(Cl)c(Cl)c2=O)cc1,T/C,[1],99 % of control
same,T/C,[2],103 % of control
same,T/C,[3],98 % of control
CCOC(=O)c1c[nH]c2cc(Cl)ccc2c1=O,T/C,[12],93 % of control
same,T/C,[13],98 % of control
same,T/C,[14],93 % of control
CC(NC(=O)C(c1ccccc1)c1ccccc1)C(=O)O (stereo not drawn),T/C,[15],97 % of control
same,T/C,[16],107 % of control
same,T/C,"dose: 200.0 mg/kg/injection, schedule: Q01DX005 (ip), vehicle: Klucel (hydroxypropylcellulose) (HPC)",97 % of control
O=S(=O)(c1cnccc1N1CCN(CCCl)CC1)N1CCCCC1,T/C,"dose: 6.25 mg/kg/injection, schedule: Q01DX009 (ip), vehicle: saline",98 % of control and 100 % of control
same,T/C,[8],100 % of control and 104 % of control and 105 % of control
same,T/C,[9],100 % of control and 108 % of control and 109 % of control
CCCCCCCCC#CC(=O)OC,T/C,[12],97 % of control
same,T/C,[13],92 % of control
same,T/C,[14],97 % of control
CC(C)(C)N1CCC1,T/C,[15],100 % of control
same,T/C,[16],99 % of control
Cc1ccc(S(=O)(=O)O/N=C2/CCC(C)(C)c3ccccc32)cc1,T/C,[13],90 % of control
same,T/C,[14],100 % of control
same,T/C,"dose: 400.0 mg/kg/injection, schedule: Q01DX009 (ip), vehicle: saline with Tween-80",90 % of control
Cc1c(C(=O)O)c(O)cc2c1C(=O)c1c(O)c(C3OC(CO)C(O)C(O)C3O)c(O)c(O)c1C2=O (stereo not drawn),T/C,"dose: 0.12 mg/kg/injection, schedule: Q01DX009 (ip), vehicle: saline",108 % of control
same,T/C,"dose: 0.25 mg/kg/injection, schedule: Q01DX009 (ip), vehicle: saline",104 % of control
same,T/C,"dose: 0.5 mg/kg/injection, schedule: Q01DX009 (ip), vehicle: saline",110 % of control
same,T/C,"dose: 1.0 mg/kg/injection, schedule: Q01DX009 (ip), vehicle: saline",103 % of control
same,T/C,"dose: 2.0 mg/kg/injection, schedule: Q01DX009 (ip), vehicle: saline",101 % of control
O=C1CN(C(=O)Nc2ccc(Cl)c(Cl)c2)C(=S)N1,T/C,"dose: 6.25 mg/kg/injection, schedule: Q01DX009 (ip), vehicle: Klucel (hydroxypropylcellulose) (HPC)",88 % of control
same,T/C,[10],101 % of control
same,T/C,[11],103 % of control and 90 % of control
CC1=C(OS(C)(=O)=O)CCC1=O,T/C,"dose: 12.5 mg/kg/injection, schedule: Q01DX005 (ip), vehicle: saline with Tween-80",104 % of control
same,T/C,[4],103 % of control
same,T/C,[5],103 % of control and 107 % of control
same,T/C,[6],106 % of control
